# Data from patent US20230257396A1, “MACROCYCLES AND THEIR USE” (BLOSSOMHILL THERAPEUTICS, INC., priority 2020, published 2023).
# Columns and labels:
# Test in all cases: KINOMEscan kinase binding assay (Eurofins/DiscoveRx), % Ctrl
# Conditions in all cases: 1 μM
# kinases [1] = target: T1, kinases (Homo sapiens, UniProt P36888, D835Y)
# T1 construct: purchased Eurofins/DiscoveRx; host or cells: E. coli BL21-derived host (T7 phage display) for most kinases; HEK-293 for the rest
# T1 sequence (P36888 27-993 D835Y): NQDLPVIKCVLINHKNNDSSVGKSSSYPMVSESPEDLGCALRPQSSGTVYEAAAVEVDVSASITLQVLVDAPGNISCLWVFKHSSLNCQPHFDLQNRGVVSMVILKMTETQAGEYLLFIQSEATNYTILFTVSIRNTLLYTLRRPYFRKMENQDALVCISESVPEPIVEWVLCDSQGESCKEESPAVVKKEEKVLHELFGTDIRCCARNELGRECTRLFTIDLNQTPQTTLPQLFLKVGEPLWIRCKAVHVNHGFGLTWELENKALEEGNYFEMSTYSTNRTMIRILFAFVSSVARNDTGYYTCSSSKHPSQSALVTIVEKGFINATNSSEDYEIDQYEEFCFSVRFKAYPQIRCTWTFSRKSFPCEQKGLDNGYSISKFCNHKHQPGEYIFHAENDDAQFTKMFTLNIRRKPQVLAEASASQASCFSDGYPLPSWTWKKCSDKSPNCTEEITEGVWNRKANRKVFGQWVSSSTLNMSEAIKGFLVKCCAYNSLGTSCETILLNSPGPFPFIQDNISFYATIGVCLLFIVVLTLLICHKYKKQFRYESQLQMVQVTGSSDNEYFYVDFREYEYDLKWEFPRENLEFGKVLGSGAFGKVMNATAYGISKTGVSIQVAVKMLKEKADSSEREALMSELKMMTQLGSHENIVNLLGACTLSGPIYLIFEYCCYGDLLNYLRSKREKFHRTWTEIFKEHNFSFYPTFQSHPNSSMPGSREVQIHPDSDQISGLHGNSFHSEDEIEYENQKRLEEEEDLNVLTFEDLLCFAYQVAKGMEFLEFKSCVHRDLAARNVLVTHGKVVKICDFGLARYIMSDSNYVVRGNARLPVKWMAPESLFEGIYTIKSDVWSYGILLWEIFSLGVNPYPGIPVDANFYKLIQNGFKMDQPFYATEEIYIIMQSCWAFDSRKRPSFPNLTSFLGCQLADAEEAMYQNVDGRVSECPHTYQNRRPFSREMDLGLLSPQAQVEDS
# Method: (§1) Kinase binding assays were performed at Eurofins/DiscoveRx using the general KINOMEscan Protocol (Fabian, M. A. et al., “A small molecule-kinase interaction map for clinical kinase inhibitors,” Nat. Biotechnol. 2005, 23(3):329-36). For most assays, kinase-tagged T7 phage strains were prepared in an E. coli host derived from the BL21 strain. E. coli were grown to log-phase and infected with T7 phage and incubated with shaking at 32° C. until lysis. The lysates were centrifuged and filtered to remove cell debris. The remaining kinases were produced in HEK-293 cells and subsequently tagged with DNA for qPCR detection. Streptavidin-coated magnetic beads were treated with biotinylated small molecule ligands for 30 minutes at room temperature to generate affinity resins for kinase assays. The liganded beads were blocked with excess biotin and washed with blocking buffer (SeaBlock (Pierce), 1% BSA, 0.05% Tween 20, 1 mM DTT) to remove unbound ligand and to reduce nonspecific binding. Binding reactions were assembled by combining kinases, liganded affinity beads, and test compounds in 1×binding buffer (20% SeaBlock, 0.17×PBS, 0.05% Tween 20, 6 mM DTT). All reactions were performed in polystyrene 96-well plates in a final volume of 0.135 mL. The assay plates were incubated at room temperature with shaking for 1 hour and the affinity beads were washed with washbuffer (1×PBS, 0.05% Tween 20). The beads were then re-suspended in elution buffer (1× PBS, 0.05% Tween 20, 0.5 μM non-biotinylated affinity ligand) and incubated at room temperature with shaking for 30 minutes. The kinase concentration in the eluates was measured by qPCR. Results for compounds tested in this assay at a given concentration are reported as “% Ctrl”, where lower numbers indicate stronger binding in the matrix.
# (§2) (test compound signal-positive control signal)/(negative control signal-positive control signal) X100
# kinases [2] = target: T2, kinases (Homo sapiens, UniProt P00533, L858R/T790M)
# T2 construct: purchased Eurofins/DiscoveRx; host or cells: E. coli BL21-derived host (T7 phage display) for most kinases; HEK-293 for the rest
# Method: as §1, §2
# kinases [3] = target: T3, kinases (Homo sapiens, UniProt P17948)
# T3 construct: purchased Eurofins/DiscoveRx; host or cells: E. coli BL21-derived host (T7 phage display) for most kinases; HEK-293 for the rest
# Method: as §1, §2
# kinases [4] = target: T4, kinases (Homo sapiens, UniProt P10721, T670I/V559D)
# T4 construct: purchased Eurofins/DiscoveRx; host or cells: E. coli BL21-derived host (T7 phage display) for most kinases; HEK-293 for the rest
# Method: as §1, §2
# kinases [5] = target: T5, kinases (Homo sapiens, UniProt P35916)
# T5 construct: purchased Eurofins/DiscoveRx; host or cells: E. coli BL21-derived host (T7 phage display) for most kinases; HEK-293 for the rest
# Method: as §1, §2
# kinases [6] = target: T6, kinases (Homo sapiens, UniProt P10721, L576P)
# T6 construct: purchased Eurofins/DiscoveRx; host or cells: E. coli BL21-derived host (T7 phage display) for most kinases; HEK-293 for the rest
# Method: as §1, §2
# kinases [7] = target: T7, kinases (Homo sapiens, UniProt P07949, V804M)
# T7 construct: purchased Eurofins/DiscoveRx; host or cells: E. coli BL21-derived host (T7 phage display) for most kinases; HEK-293 for the rest
# Method: as §1, §2
# kinases [8] = target: T8, kinases (Homo sapiens, UniProt P00519, M351T)
# T8 construct: purchased Eurofins/DiscoveRx; host or cells: E. coli BL21-derived host (T7 phage display) for most kinases; HEK-293 for the rest
# Method: as §1, §2
# T5 sequence (P35916 25-1363): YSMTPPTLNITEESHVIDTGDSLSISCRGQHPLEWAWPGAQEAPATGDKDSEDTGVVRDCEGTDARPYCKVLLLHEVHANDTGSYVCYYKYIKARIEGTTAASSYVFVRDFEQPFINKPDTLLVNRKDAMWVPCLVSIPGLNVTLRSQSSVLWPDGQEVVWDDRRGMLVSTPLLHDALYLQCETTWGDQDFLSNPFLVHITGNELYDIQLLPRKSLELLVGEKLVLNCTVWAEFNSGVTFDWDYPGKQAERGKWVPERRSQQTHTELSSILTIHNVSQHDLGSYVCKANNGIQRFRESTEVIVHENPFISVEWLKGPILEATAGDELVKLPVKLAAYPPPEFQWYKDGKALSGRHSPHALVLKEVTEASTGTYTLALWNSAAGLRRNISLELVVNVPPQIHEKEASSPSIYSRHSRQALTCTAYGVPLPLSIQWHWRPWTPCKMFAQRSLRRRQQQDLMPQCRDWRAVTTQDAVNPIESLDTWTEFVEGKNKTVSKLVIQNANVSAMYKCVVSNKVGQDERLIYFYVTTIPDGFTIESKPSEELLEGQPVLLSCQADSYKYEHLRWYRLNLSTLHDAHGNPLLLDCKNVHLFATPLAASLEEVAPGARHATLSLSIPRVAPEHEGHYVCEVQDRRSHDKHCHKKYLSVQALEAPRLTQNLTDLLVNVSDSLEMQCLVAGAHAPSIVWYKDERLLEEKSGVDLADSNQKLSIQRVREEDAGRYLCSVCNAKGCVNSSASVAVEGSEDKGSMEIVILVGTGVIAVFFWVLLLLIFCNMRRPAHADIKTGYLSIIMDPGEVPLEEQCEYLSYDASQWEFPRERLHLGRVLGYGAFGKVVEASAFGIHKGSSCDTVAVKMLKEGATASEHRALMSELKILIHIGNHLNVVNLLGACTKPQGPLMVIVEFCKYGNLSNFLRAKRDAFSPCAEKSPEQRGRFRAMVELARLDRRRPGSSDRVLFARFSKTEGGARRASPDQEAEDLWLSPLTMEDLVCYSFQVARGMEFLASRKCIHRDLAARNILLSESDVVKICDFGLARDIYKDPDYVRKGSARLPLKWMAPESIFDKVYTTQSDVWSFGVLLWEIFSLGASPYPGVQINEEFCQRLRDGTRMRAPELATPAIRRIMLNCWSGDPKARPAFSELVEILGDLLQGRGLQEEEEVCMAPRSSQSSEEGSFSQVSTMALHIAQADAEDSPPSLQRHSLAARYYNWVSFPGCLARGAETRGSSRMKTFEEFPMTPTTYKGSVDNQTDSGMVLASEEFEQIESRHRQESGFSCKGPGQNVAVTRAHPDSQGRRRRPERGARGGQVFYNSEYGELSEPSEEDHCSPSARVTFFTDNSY
# T7 sequence (P07949 29-1114 V804M): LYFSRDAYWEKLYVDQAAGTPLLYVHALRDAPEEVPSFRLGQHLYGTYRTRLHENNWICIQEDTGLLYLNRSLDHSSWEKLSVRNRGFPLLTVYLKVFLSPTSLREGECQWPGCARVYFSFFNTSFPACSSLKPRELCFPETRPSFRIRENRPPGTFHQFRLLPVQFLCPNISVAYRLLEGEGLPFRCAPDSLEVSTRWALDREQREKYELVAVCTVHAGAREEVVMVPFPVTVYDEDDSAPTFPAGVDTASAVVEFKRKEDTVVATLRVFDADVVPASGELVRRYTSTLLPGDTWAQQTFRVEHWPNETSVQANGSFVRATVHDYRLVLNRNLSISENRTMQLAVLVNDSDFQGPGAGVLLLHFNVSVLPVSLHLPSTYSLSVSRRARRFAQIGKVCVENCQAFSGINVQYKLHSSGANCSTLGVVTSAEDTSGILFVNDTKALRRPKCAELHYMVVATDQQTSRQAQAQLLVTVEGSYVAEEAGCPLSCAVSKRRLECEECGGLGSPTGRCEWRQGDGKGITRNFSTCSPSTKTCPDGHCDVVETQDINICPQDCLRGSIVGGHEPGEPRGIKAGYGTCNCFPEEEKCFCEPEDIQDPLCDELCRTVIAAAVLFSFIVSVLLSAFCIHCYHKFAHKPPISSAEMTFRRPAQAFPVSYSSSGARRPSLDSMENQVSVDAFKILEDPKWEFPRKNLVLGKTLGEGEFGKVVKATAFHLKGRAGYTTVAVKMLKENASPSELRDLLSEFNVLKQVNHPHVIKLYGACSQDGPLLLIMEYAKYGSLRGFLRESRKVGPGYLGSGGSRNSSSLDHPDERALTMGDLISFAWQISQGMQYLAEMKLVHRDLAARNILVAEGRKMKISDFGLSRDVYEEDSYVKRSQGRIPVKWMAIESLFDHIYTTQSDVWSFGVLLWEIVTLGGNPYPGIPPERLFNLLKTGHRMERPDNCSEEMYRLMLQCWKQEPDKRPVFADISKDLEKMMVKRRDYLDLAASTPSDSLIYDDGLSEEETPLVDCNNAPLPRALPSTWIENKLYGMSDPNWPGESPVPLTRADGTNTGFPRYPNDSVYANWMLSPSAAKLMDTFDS
# T4 sequence (P10721 26-976 V559D/T670I): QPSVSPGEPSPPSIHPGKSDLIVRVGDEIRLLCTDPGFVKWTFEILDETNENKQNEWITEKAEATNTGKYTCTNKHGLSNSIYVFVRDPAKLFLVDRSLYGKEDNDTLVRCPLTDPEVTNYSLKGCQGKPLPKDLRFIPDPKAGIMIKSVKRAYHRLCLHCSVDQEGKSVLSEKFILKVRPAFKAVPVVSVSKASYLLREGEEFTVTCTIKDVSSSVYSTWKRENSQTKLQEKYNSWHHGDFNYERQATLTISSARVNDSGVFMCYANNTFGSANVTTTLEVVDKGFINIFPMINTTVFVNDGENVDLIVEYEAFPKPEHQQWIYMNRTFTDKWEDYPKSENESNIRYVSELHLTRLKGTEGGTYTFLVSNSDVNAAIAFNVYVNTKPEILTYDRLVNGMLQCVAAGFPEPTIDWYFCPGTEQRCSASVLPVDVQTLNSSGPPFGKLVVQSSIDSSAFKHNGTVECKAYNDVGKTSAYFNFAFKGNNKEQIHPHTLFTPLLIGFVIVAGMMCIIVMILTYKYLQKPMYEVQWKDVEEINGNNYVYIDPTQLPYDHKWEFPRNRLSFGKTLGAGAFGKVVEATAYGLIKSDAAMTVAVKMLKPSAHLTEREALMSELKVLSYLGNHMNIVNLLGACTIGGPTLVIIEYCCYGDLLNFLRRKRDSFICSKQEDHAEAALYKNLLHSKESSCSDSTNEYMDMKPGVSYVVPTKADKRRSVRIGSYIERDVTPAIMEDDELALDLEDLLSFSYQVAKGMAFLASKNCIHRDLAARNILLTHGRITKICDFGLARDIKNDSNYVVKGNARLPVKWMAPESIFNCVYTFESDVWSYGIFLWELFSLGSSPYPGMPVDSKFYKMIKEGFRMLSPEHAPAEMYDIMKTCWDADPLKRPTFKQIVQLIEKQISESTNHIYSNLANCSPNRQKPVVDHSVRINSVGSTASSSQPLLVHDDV
# T3 sequence (P17948 27-1338): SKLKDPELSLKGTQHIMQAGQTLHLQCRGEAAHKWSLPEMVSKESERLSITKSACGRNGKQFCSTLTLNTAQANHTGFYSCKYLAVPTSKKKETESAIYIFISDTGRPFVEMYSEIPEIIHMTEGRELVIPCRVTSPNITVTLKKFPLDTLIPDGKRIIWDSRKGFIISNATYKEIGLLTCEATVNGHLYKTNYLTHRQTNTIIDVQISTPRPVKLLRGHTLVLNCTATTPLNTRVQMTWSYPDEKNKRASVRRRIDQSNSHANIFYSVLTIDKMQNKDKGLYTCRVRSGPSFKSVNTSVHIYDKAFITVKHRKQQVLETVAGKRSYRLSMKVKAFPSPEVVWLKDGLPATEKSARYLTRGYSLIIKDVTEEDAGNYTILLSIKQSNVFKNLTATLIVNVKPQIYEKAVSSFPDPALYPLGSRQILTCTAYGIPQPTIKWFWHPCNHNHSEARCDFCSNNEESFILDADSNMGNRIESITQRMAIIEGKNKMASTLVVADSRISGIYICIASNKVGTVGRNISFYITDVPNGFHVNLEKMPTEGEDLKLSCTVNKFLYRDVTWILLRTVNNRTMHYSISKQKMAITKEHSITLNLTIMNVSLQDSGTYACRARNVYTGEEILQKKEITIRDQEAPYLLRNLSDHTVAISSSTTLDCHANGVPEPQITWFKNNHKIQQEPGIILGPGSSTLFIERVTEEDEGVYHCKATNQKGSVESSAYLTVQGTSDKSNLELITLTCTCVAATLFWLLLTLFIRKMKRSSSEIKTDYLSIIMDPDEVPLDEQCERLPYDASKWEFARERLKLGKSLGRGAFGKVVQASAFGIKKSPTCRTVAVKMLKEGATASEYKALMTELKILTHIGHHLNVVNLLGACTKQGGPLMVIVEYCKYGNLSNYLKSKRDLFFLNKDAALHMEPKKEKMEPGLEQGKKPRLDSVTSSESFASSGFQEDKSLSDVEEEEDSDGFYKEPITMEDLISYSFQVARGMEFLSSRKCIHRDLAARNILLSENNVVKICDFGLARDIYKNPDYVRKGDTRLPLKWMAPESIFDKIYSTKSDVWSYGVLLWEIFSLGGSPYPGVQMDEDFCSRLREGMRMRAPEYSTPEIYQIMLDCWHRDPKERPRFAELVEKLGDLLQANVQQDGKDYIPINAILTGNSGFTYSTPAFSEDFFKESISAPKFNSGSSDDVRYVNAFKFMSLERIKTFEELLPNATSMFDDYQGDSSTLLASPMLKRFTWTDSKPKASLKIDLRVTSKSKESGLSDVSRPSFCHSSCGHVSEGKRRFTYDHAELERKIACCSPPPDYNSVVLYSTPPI
# T6 sequence (P10721 26-976 L576P): as the sequence (P10721 26-976 V559D/T670I) above, with D534V, L551P, I645T counted along it
Compound,"% Ctrl, FLT3(D835Y) (kinases [1]; target FLT3(D835Y))","% Ctrl, EGFR(L858R, T790M) (kinases [2]; target EGFR(L858R, T790M))","% Ctrl, FLT1 (kinases [3]; target FLT1)","% Ctrl, KIT(V559D, T670I) (kinases [4]; target KIT(V559D, T670I))","% Ctrl, FLT4 (kinases [5]; target FLT4)","% Ctrl, KIT(L576P) (kinases [6]; target KIT(L576P))","% Ctrl, RET(V804M) (kinases [7]; target RET(V804M))","% Ctrl, ABL1(M351T)-phosphorylated (kinases [8]; target ABL1(M351T)-phosphorylated)","% Ctrl, FLT3(D835Y) (kinases [1]; FLT3(D835Y))","% Ctrl, EGFR(L858R, T790M) (kinases [2]; EGFR(L858R, T790M))","% Ctrl, FLT1 (kinases [3]; FLT1)","% Ctrl, KIT(V559D, T670I) (kinases [4]; KIT(V559D, T670I))","% Ctrl, FLT4 (kinases [5]; FLT4)","% Ctrl, KIT(L576P) (kinases [6]; KIT(L576P))","% Ctrl, RET(V804M) (kinases [7]; RET(V804M))","% Ctrl, ABL1(M351T)-phosphorylated (kinases [8]; ABL1(M351T)-phosphorylated)"
"Cc1cc2c([nH]1)/C=C1\C(=O)Nc3cnc(cc31)-c1cn[nH]c1CNCCN(C)C2=O [Ex. 55, [3a(4)Z]-6,9-dimethyl-9,10,11,12,13,14-hexahydro-17,1-(azenometheno)pyrazolo[4,3-m]dipyrrolo[3,2-f:3′,4′-i][1,4]diazacyclopentadecine-3,8(2,5H)-dione]",2 % Ctrl,35 % Ctrl,62 % Ctrl,50 % Ctrl,31 % Ctrl,17 % Ctrl,0.3 % Ctrl,3.7 % Ctrl,,,,,,,,
"Cc1cc2c([nH]1)/C=C1\C(=O)Nc3ccc(cc31)O[C@@H](C)COCCN(C)C2=O [Ex. 92, [10S,16a(17)Z]-2,5,10-trimethyl-6,7,9,10-tetrahydro-1H-12,14-(ethanediylidene)dipyrrolo[3,2-i:3′,4′-l][1,4,7]dioxazacyclopentadecine-4,16(5H,15H)-dione]",,,,,,,,,28 % Ctrl,100 % Ctrl,90 % Ctrl,91 % Ctrl,75 % Ctrl,87 % Ctrl,43 % Ctrl,54 % Ctrl
"Cc1cc2c([nH]1)/C=C1\C(=O)Nc3ccc(cc31)-c1cnn(C)c1COCCN(C)C2=O [Ex. 124, [3a(4)Z]-6,9,14-trimethyl-10,11,13,14-tetrahydro-2H-1,17-(ethanediylidene)pyrazolo[4,3-m]dipyrrolo[3,2-f:3′,4′-i][1,4]oxazacyclopentadecine-3,8(5H,9H)-dione]",,,,,,,,,5.6 % Ctrl,1.7 % Ctrl,13 % Ctrl,24 % Ctrl,0.15 % Ctrl,4.2 % Ctrl,0.05 % Ctrl,0.05 % Ctrl
"Cc1cc2c([nH]1)/C=C1\C(=O)Nc3ccc(cc31)-c1cnn(C)c1CNCCN(C)C2=O [Ex. 125, [3a(4)Z]-6,9,14-trimethyl-9,10,11,12,13,14-hexahydro-1,17-(ethanediylidene)pyrazolo[4,3-m]dipyrrolo[3,2-f:3′,4′-i][1,4]diazacyclopentadecine-3,8(2H,5H)-dione]",,,,,,,,,0 % Ctrl,1.2 % Ctrl,11 % Ctrl,27 % Ctrl,0.11 % Ctrl,5.9 % Ctrl,0 % Ctrl,0.1 % Ctrl
"Cc1cc2c([nH]1)/C=C1\C(=O)Nc3ccc(cc31)-c1cnn(C)c1CN(C)CCN(C)C2=O [Ex. 126, [3a(4)Z]-6,9,12,14-tetramethyl-9,10,11,12,13,14-hexahydro-1,17-(ethanediylidene)pyrazolo[4,3-m]dipyrrolo[3,2-f:3′,4′-i][1,4]diazacyclopentadecine-3,8(2H,5H)-dione]",,,,,,,,,1.4 % Ctrl,0.15 % Ctrl,0.65 % Ctrl,3.6 % Ctrl,0 % Ctrl,0 % Ctrl,0 % Ctrl,0.05 % Ctrl
"Cc1cc2c([nH]1)/C=C1\C(=O)Nc3ccc(cc31)-c1c(C)n[nH]c1CNCCN(C)C2=O [Ex. 127, [3a(4)Z]-6,9,16-trimethyl-9,10,11,12,13,14-hexahydro-1,17-(ethanediylidene)pyrazolo[4,3-m]dipyrrolo[3,2-f:3′,4′-i][1,4]diazacyclopentadecine-3,8(2H,5H)-dione]",,,,,,,,,1.4 % Ctrl,2.3 % Ctrl,54 % Ctrl,62 % Ctrl,2.1 % Ctrl,73 % Ctrl,1.6 % Ctrl,0.2 % Ctrl
"Cc1cc2c([nH]1)/C=C1\C(=O)Nc3ccc(cc31)-c1c(noc1C)COCCN(C)C2=O [Ex. 128, [3a(4)Z]-6,9,16-trimethyl-1,11-dihydro-2H,13H-1,17-(ethanediylidene)[1,4]oxazolo[4,3-m]dipyrrolo[3,2-f:3′,4′-i][1,4]oxazacyclopentadecine-3,8(5H,9H)-dione]",,,,,,,,,22 % Ctrl,48 % Ctrl,85 % Ctrl,71 % Ctrl,45 % Ctrl,100 % Ctrl,55 % Ctrl,39 % Ctrl
"Cc1cc2c([nH]1)/C=C1\C(=O)Nc3ccc(cc31)OCCOCCNC2=O [Ex. 129, [16a(17)Z]-2-methyl-6,7,9,10-tetrahydro-1H-12,14-(ethanediylidene)dipyrrolo[3,2-i:3′,4′-l][1,4,7]dioxazacyclopentadecine-4,16(5H,15H)-dione]",,,,,,,,,9.1 % Ctrl,98 % Ctrl,99 % Ctrl,100 % Ctrl,83 % Ctrl,98 % Ctrl,94 % Ctrl,83 % Ctrl
